One assay has as its system MCH-1R(Δ316/EGFP). Kind of assay: Functional activation, aequorin assay (mobilization of intracellular calcium). The assay is classed as cell-based, human. Particulars: FIG. 6; transiently transfected HEK293-AEQ17 cells, aequorin bioluminescence. The procedure:
Functional activation of MCH-1R […] was measured in an aequorin assay. Proteins were introduced in the stable reporter cell line HEK293-AEQ17 in which mobilization of intracellular calcium can be detected by bioluminescence of jelly fish aequorin upon calcium binding.
Bioluminescence was detected using a Luminoskan RT luminometer (Labsystems Inc., Gaithersburg, Md.). HEK293-AEQ17 cells were maintained in D-MEM/high glucose medium (Life Technologies, Rockville, Md.) supplemented with 10% fetal bovine serum, […] G418, 25 mM Hepes at 37° C. with 5% CO2 in a humidified atmosphere. […]
The cells were harvested, washed once in ECB medium and resuspended to 500,000 cells/ml. […] of cell suspension (corresponding to 5×10^4 cells) was then injected into a 96-well test plate, and the integrated light emission was recorded over 30 seconds, in 0.5 second units. 20 μL of lysis buffer (0.1% final Triton X-100 concentration) was then injected and the integrated light emission recorded over 10 seconds, in 0.5 second units. The “fractional response” values for each well were calculated by taking the ratio of the integrated response to the initial challenge to the total integrated luminescence including the Triton X-100 lysis response.

Assay [1] has as its target human melanin-concentrating hormone receptor (MCH-1R) (human) (UniProt Q99705). Kind of assay: scintillation proximity assay, HEK293-AEQ17/MCH-1R membranes; non-specific binding defined with 500 nM unlabeled MCH. Background: Scintillation proximity formats need no separation of bound from free tracer.

Bridge positions count the residues as written; N and C are the ends. Ends that are not written are not given here.

Sequence of human melanin-concentrating hormone receptor (MCH-1R) (human) (Q99705 whole entry): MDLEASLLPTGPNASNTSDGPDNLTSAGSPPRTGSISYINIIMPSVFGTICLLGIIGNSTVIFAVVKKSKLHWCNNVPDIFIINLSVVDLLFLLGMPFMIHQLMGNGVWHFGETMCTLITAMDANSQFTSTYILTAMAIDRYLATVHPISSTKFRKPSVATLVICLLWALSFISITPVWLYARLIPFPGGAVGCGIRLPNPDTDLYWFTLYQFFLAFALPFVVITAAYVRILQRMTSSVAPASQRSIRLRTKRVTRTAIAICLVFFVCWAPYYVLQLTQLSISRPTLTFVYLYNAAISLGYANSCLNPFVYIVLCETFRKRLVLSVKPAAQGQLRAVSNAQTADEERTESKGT

Take “Melanin-concentrating hormone (DFDMLRCMLGRVYRPCWQV; disulfide 7-16 (inferred); ends not checked) [MCH, cyclic 19-amino acid neuropeptide, MCH-1R agonist]”: in the assay on MCH-1R(Δ316/EGFP), the “functional activation of MCH-1R(Δ316/EGFP) (mobilization of intracellular calcium)” value is on record as “lack of functional activation”. Consider “[125I]Phe13Tyr19-MCH (from UniProt P20382 147-165) (peptide)”, for which the specific binding window in assay [1] was > 6 x (fold).

For the origin of these results see patent publication US20050069883A1 (priority 2001, published 2005).
